PubChem BioAssay AID330 (DTP/NCI, 2004)
“And” between values parts separate entries of the source, which are not always exact repeats. Equal values may be shown once. Toxic doses and inconclusive results are not listed. The calls were made as follows: active = survival T/C of 150% or more; inactive = T/C below 125% in these data.

Tested on: P388 leukemia ip, CD2F1 mice, survival T/C
Assay: NCI In Vivo Anticancer Drug Screen. Data for tumor model P388 Leukemia (intraperitoneal) in CD2F1 (CDF1) mice
Conditions: endpoint: median survival time, higher = longer survival
Outline: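 Mice carrying the transplanted tumor received test compound or vehicle. Survival was recorded in each group, and the value is the treated-group measurement divided by that of the vehicle-treated control group.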

[1] = dose: 50.0 mg/kg/injection, schedule: Q01DX009 (ip), vehicle: saline
[2] = dose: 100.0 mg/kg/injection, schedule: Q01DX009 (ip), vehicle: saline
[3] = dose: 200.0 mg/kg/injection, schedule: Q01DX009 (ip), vehicle: saline
[4] = dose: 50.0 mg/kg/injection, schedule: Q01DX009 (ip), vehicle: saline with Tween-80
[5] = dose: 100.0 mg/kg/injection, schedule: Q01DX009 (ip), vehicle: saline with Tween-80
[6] = dose: 200.0 mg/kg/injection, schedule: Q01DX009 (ip), vehicle: saline with Tween-80
[7] = dose: 50.0 mg/kg/injection, schedule: Q01DX005 (ip), vehicle: saline with Tween-80
[8] = dose: 100.0 mg/kg/injection, schedule: Q01DX005 (ip), vehicle: saline with Tween-80
[9] = dose: 200.0 mg/kg/injection, schedule: Q01DX005 (ip), vehicle: saline with Tween-80
[10] = dose: 25.0 mg/kg/injection, schedule: Q01DX009 (ip), vehicle: saline
[11] = dose: 60.0 mg/kg/injection, schedule: Q01DX005 (ip), vehicle: saline with Tween-80
[12] = dose: 120.0 mg/kg/injection, schedule: Q01DX005 (ip), vehicle: saline with Tween-80
[13] = dose: 240.0 mg/kg/injection, schedule: Q01DX005 (ip), vehicle: saline with Tween-80

Measured: T/C

O=C1c2ccc(Cl)cc2NC(O)c2cccn21 (stereo unspecified)
inactive: dose: 0.1 mg/kg/injection, schedule: Q01DX005 (ip), vehicle: water 99 % of control | dose: 0.2 mg/kg/injection, schedule: Q01DX005 (ip), vehicle: water 98 % of control | dose: 0.4 mg/kg/injection, schedule: Q01DX005 (ip), vehicle: water 98 % of control | dose: 0.8 mg/kg/injection, schedule: Q01DX005 (ip), vehicle: water 100 % of control | dose: 1.6 mg/kg/injection, schedule: Q01DX005 (ip), vehicle: water 98 % of control | dose: 5.0 mg/kg/injection, schedule: Q01DX005 (ip), vehicle: distilled water + Tween-80 95 % of control | dose: 10.0 mg/kg/injection, schedule: Q01DX005 (ip), vehicle: distilled water + Tween-80 99 % of control | dose: 20.0 mg/kg/injection, schedule: Q01DX005 (ip), vehicle: distilled water + Tween-80 100 % of control | dose: 40.0 mg/kg/injection, schedule: Q01DX005 (ip), vehicle: distilled water + Tween-80 93 % of control | dose: 80.0 mg/kg/injection, schedule: Q01DX005 (ip), vehicle: distilled water + Tween-80 98 % of control

O=NNc1cncc2ccccc12
inactive: dose: 1.56 mg/kg/injection, schedule: Q01DX009 (ip), vehicle: water 100 % of control | dose: 3.12 mg/kg/injection, schedule: Q01DX009 (ip), vehicle: water 94 % of control | dose: 6.0 mg/kg/injection, schedule: Q01DX008 (ip), vehicle: water 102 % of control | dose: 6.25 mg/kg/injection, schedule: Q01DX009 (ip), vehicle: water 94 % of control | dose: 12.5 mg/kg/injection, schedule: Q01DX008 (ip), vehicle: water 113 % of control | dose: 12.5 mg/kg/injection, schedule: Q01DX009 (ip), vehicle: water 104 % of control | dose: 25.0 mg/kg/injection, schedule: Q01DX008 (ip), vehicle: water 111 % of control | dose: 25.0 mg/kg/injection, schedule: Q01DX009 (ip), vehicle: water 115 % of control | dose: 50.0 mg/kg/injection, schedule: Q01DX008 (ip), vehicle: water 116 % of control

COC(=O)C(=O)c1cc(=O)[nH]c(NC(C)=O)n1
inactive: dose: 100.0 mg/kg/injection, schedule: Q01DX001 (ip), vehicle: saline with Tween-80 107 % of control | dose: 200.0 mg/kg/injection, schedule: Q01DX001 (ip), vehicle: saline with Tween-80 101 % of control | dose: 400.0 mg/kg/injection, schedule: Q01DX001 (ip), vehicle: saline with Tween-80 107 % of control

CCOC(=O)CCCCCNC(=O)N1c2c(nc(N)[nH]c2=O)NCC1CNc1ccc(C(=O)NC(CCC(=O)O)C(=O)O)cc1 (stereo unspecified)
inactive: dose: 100.0 mg/kg/injection, schedule: Q01DX009 (ip), vehicle: sodium bicarbonate 97 % of control | dose: 200.0 mg/kg/injection, schedule: Q01DX009 (ip), vehicle: sodium bicarbonate 91 % of control | dose: 400.0 mg/kg/injection, schedule: Q01DX009 (ip), vehicle: sodium bicarbonate 97 % of control

O=C1CSC(=S)N1c1ccc(I)cc1
inactive: dose: 50.0 mg/kg/injection, schedule: Q01DX009 (ip), vehicle: suspension in saline 101 % of control | dose: 100.0 mg/kg/injection, schedule: Q01DX009 (ip), vehicle: suspension in saline 101 % of control | dose: 200.0 mg/kg/injection, schedule: Q01DX009 (ip), vehicle: suspension in saline 114 % of control

O=P(c1ccccc1)(c1ccccc1)C(O)c1cccs1 (stereo unspecified)
inactive: dose: 50.0 mg/kg/injection, schedule: Q01DX009 (ip), vehicle: Klucel (hydroxypropylcellulose) (HPC) 90 % of control | dose: 100.0 mg/kg/injection, schedule: Q01DX009 (ip), vehicle: Klucel (hydroxypropylcellulose) (HPC) 88 % of control | dose: 200.0 mg/kg/injection, schedule: Q01DX009 (ip), vehicle: Klucel (hydroxypropylcellulose) (HPC) 92 % of control

CCOC(=O)C(C)c1ccccc1 (stereo unspecified)
inactive: [1] 96 % of control | [2] 105 % of control | [3] 99 % of control

CC(=O)Nc1cccc2c(C)cc(=O)[nH]c12
inactive: dose: 100.0 mg/kg/injection, schedule: Q01DX001 (ip), vehicle: Klucel (hydroxypropylcellulose) (HPC) 91 % of control | dose: 200.0 mg/kg/injection, schedule: Q01DX001 (ip), vehicle: Klucel (hydroxypropylcellulose) (HPC) 97 % of control | dose: 400.0 mg/kg/injection, schedule: Q01DX001 (ip), vehicle: Klucel (hydroxypropylcellulose) (HPC) 98 % of control

CN1CC1c1cc2ccccc2c2ccccc12 (stereo unspecified)
inactive: dose: 100.0 mg/kg/injection, schedule: Q01DX001 (ip), vehicle: suspension in saline 107 % of control | dose: 200.0 mg/kg/injection, schedule: Q01DX001 (ip), vehicle: suspension in saline 98 % of control | dose: 400.0 mg/kg/injection, schedule: Q01DX001 (ip), vehicle: suspension in saline 101 % of control

NN(Cc1ccccc1[N+](=O)[O-])c1ccccc1
inactive: [4] 100 % of control | [5] 86 % of control | [6] 101 % of control

Cc1cc2oc3c(ccc(=O)n3C)c(=O)c2c(C)c1Cl
inactive: [7] 104 % of control | [8] 113 % of control | [9] 88 % of control

O=C(CNC(=O)c1ccccc1)Nc1ccccc1
inactive: [10] 115 % of control | [1] 103 % of control | [2] 94 % of control | [3] 104 % of control

CCCC(C(CC)CN(C)C)N(C)C (stereo unspecified)
inactive: [4] 101 % of control | [5] 93 % of control

O=[N+]([O-])c1cccc(S(=O)(=O)N/N=C\c2cc([N+](=O)[O-])ccc2O)c1
inactive: [7] 107 % of control | [8] 100 % of control | [9] 97 % of control

Clc1ccccc1/C=C/C=C1c2ccccc2-c2ccccc21
inactive: dose: 12.5 mg/kg/injection, schedule: Q01DX009 (ip), vehicle: saline with Tween-80 90 % of control | dose: 25.0 mg/kg/injection, schedule: Q01DX009 (ip), vehicle: saline with Tween-80 104 % of control | [4] 113 % of control | dose: 100.0 mg/kg/injection, schedule: Q04DX003 (ip), vehicle: saline with Tween-80 95 % of control | dose: 200.0 mg/kg/injection, schedule: Q04DX003 (ip), vehicle: saline with Tween-80 109 % of control | dose: 400.0 mg/kg/injection, schedule: Q04DX003 (ip), vehicle: saline with Tween-80 109 % of control

CC1=CCC2C(=O)N(c3cc(C)on3)C(=O)C2C1 (stereo unspecified)
inactive: [11] 97 % of control | [12] 100 % of control | [13] 90 % of control

O=P(Oc1ccccc1)(Oc1ccccc1)C(O)C(Cl)(Cl)Cl (stereo unspecified)
inactive: [4] 107 % of control | [5] 100 % of control and 117 % of control | [6] 103 % of control

C(COCC1CO1)OCC1CO1 (stereo unspecified)
inactive: dose: 12.5 mg/kg/injection, schedule: Q01DX009 (ip), vehicle: saline 120 % of control
active: [1] 150 % of control

C=C(C)C1CC2(C)C(C)C(OC(=O)/C(C)=C/C)CCC2C(OC(=O)C=C(C)C)C1=O (stereo unspecified)
inactive: dose: 75.0 mg/kg/injection, schedule: Q04DX002 (ip), vehicle: Klucel (hydroxypropylcellulose) (HPC) 99 % of control | dose: 150.0 mg/kg/injection, schedule: Q04DX002 (ip), vehicle: Klucel (hydroxypropylcellulose) (HPC) 98 % of control | dose: 300.0 mg/kg/injection, schedule: Q04DX002 (ip), vehicle: Klucel (hydroxypropylcellulose) (HPC) 106 % of control

CC(=O)Nc1ccc(S(=O)(=O)N/N=C\c2cc([N+](=O)[O-])ccc2O)cc1
inactive: [7] 103 % of control | [8] 101 % of control | [9] 93 % of control

Cc1cc(O)c(C=Nc2ccccc2C)c(=O)o1
inactive: [7] 102 % of control | [8] 103 % of control | [9] 105 % of control

CC(=O)c1cc(C)oc1C
inactive: [10] 100 % of control | [1] 100 % of control and 111 % of control and 112 % of control | [2] 109 % of control and 111 % of control and 112 % of control | dose: 400.0 mg/kg/injection, schedule: Q01DX009 (ip), vehicle: saline 116 % of control

O=C1CCC(CCl)(C(=O)O)O1 (stereo unspecified)
inactive: [1] 106 % of control | [2] 106 % of control | [3] 91 % of control

CC(C)CC(N)C(=O)NC(CC(C)C)P(=O)(O)O (stereo unspecified)
inactive: [11] 106 % of control | [12] 101 % of control | [13] 104 % of control

CCC(=O)c1cc(Cl)ccc1O
inactive: dose: 37.5 mg/kg/injection, schedule: Q01DX001 (ip), vehicle: other 104 % of control | dose: 75.0 mg/kg/injection, schedule: Q01DX001 (ip), vehicle: other 100 % of control | dose: 150.0 mg/kg/injection, schedule: Q01DX001 (ip), vehicle: other 100 % of control
